Tests used:
HOS-TE85 [1] = experiment: Cytotoxicity against human MNNG cells assessed as cell growth inhibition at 1 uM measured after 72 hrs by MTT assay relative to control; format: functional; conditions: read-out: GI
HOS-TE85 [2] = experiment: Induction of apoptosis in human MNNG cells assessed as viable cells at 5 uM measured after 48 hrs by Alexa Fluor 488 Annexin V/propidium iodide staining based flow cytometry (reference value: 98.8%); format: functional; conditions: read-out: Activity
HOS-TE85 [3] = experiment: Antitumor activity against human MNNG cells xenografted in Balb/c mouse assessed as tumor growth inhibition at 45 mg/kg, iv administered every 2 days for 3 weeks and measured daily during compound dosing relative to control; format: functional; conditions: HOS-TE85, 504 h, time 21 day, read-out: TGI
HOS-TE85 [4] = experiment: Cell cycle arrest in human MNNG cells assessed as accumulation of cells at G0/G1 phase at 2.5 uM measured after 24 hrs by propidium iodide staining based flow cytometry (reference value: 51.4%); format: functional
[5] = Toxicity in human MNNG cell xenografted Balb/c mouse assessed as effect on heart at 15 to 45 mg/kg, iv administered every 2 days for 3 weeks and measured post last dose by H and E staining based microscopy; format: organism-based; conditions: in vivo, 504 h, dose 15-45 mg/kg, time 21 day
HOS-TE85 [6] = experiment: Cell cycle arrest in human MNNG cells assessed as accumulation of cells at S phase at 5 uM measured after 24 hrs by propidium iodide staining based flow cytometry (reference value: 39.4%); format: functional
[7] = Selectivity index, ratio of IC50 for cytotoxicity against HUVEC to IC50 for cytotoxicity against human MNNG cells; format: toxicity, cell-based; conditions: HUVEC and human MNNG cells, read-out: Ratio IC50
HOS-TE85 [8] = experiment: Induction of reactive oxygen species generation in human MNNG cells measured after 3 hrs by DCFH-DA probe based fluorescence assay; format: functional, cell-based; conditions: dose 1-10 µM
[9] = Toxicity in human MNNG cell xenografted Balb/c mouse assessed as effect on kidney at 15 to 45 mg/kg, iv administered every 2 days for 3 weeks and measured post last dose by H and E staining based microscopy; format: organism-based; conditions: in vivo, 504 h, dose 15-45 mg/kg, time 21 day
HOS-TE85 [10] = experiment: Cell cycle arrest in human MNNG cells assessed as accumulation of cells at G2/M phase at 5 uM measured after 24 hrs by propidium iodide staining based flow cytometry (reference value: 39.4%); format: functional
HOS-TE85 [11] = experiment: Antitumor activity against iv dosed human MNNG cells xenografted in Balb/c mouse assessed as increase in apoptotic cells administered every 2 days for 3 weeks and measured post last dose by TUNEL staining based assay; format: functional, organism-based; conditions: dose 15-45 mg/kg, time 21.0 day
[12] = Toxicity in human MNNG cell xenografted Balb/c mouse assessed as body weight loss at 15 to 45 mg/kg, iv administered every 2 days for 3 weeks and measured every other day during compound dosing; format: organism-based; conditions: in vivo, 504 h, dose 15-45 mg/kg, time 21 day
HOS-TE85 [13] = experiment: Cell cycle arrest in human MNNG cells assessed as accumulation of cells at G0/G1 phase at 5 uM measured after 24 hrs by propidium iodide staining based flow cytometry (reference value: 51.4%); format: functional
[14] = Toxicity in human MNNG cell xenografted Balb/c mouse assessed as effect on lung at 15 to 45 mg/kg, iv administered every 2 days for 3 weeks and measured post last dose by H and E staining based microscopy; format: organism-based; conditions: in vivo, 504 h, dose 15-45 mg/kg, time 21 day
[15] = Toxicity in human MNNG cell xenografted Balb/c mouse assessed as effect on spleen at 15 to 45 mg/kg, iv administered every 2 days for 3 weeks and measured post last dose by H and E staining based microscopy; format: organism-based; conditions: in vivo, 504 h, dose 15-45 mg/kg, time 21 day
HOS-TE85 [16] = experiment: Induction of apoptosis in human MNNG cells assessed as early apoptotic cells at 2.5 uM measured after 48 hrs by Alexa Fluor 488 Annexin V/propidium iodide staining based flow cytometry (reference value: 0.69%); format: functional
[17] = Cytotoxicity against HUVEC assessed as cell growth inhibition measured after 72 hrs by MTT assay; format: toxicity, cell-based; conditions: human, HUVEC cells
HOS-TE85 [18] = experiment: Induction of apoptosis in human MNNG cells assessed as early apoptotic cells at 10 uM measured after 48 hrs by Alexa Fluor 488 Annexin V/propidium iodide staining based flow cytometry (reference value: 0.69%); format: functional
HOS-TE85 [19] = experiment: Induction of apoptosis in human MNNG cells assessed as late apoptotic cells at 10 uM measured after 48 hrs by Alexa Fluor 488 Annexin V/propidium iodide staining based flow cytometry (reference value: 0.51%); format: functional
HOS-TE85 [20] = experiment: Cell cycle arrest in human MNNG cells assessed as accumulation of cells at S phase at 10 uM measured after 24 hrs by propidium iodide staining based flow cytometry (reference value: 39.4%); format: functional
HOS-TE85 [21] = experiment: Induction of apoptosis in human MNNG cells assessed as necrotic cells at 2.5 uM measured after 48 hrs by Alexa Fluor 488 Annexin V/propidium iodide staining based flow cytometry (reference value: 0.04%); format: functional
[22] = Toxicity in human MNNG cell xenografted Balb/c mouse assessed as effect on liver at 15 to 45 mg/kg, iv administered every 2 days for 3 weeks and measured post last dose by H and E staining based microscopy; format: organism-based; conditions: in vivo, 504 h, dose 15-45 mg/kg, time 21 day
HOS-TE85 [23] = experiment: Cell cycle arrest in human MNNG cells assessed as accumulation of cells at G2/M phase at 2.5 uM measured after 24 hrs by propidium iodide staining based flow cytometry (reference value: 39.4%); format: functional
HOS-TE85 [24] = experiment: Cell cycle arrest in human MNNG cells assessed as accumulation of cells at G0/G1 phase at 10 uM measured after 24 hrs by propidium iodide staining based flow cytometry (reference value: 51.4%); format: functional
HOS-TE85 [25] = experiment: Induction of apoptosis in human MNNG cells assessed as necrotic cells at 1 uM measured after 48 hrs by Alexa Fluor 488 Annexin V/propidium iodide staining based flow cytometry (reference value: 0.04%); format: functional

Cc1cc2c(cc1C)-c1oc(CN3CCOCC3)c(C)c1C(=O)C2=O
inhibition of growth at 1 µM (HOS-TE85 [1]): 38.2% | viability at 5 µM (HOS-TE85 [2]): 69% | inhibition in vivo at 45 mg/kg (HOS-TE85 [3]): 73.6% | Activity (HOS-TE85 [4]): 53% | Activity [5]: Non-toxic | Activity (HOS-TE85 [6]): 37.8% | selectivity ratio [7]: 13.3 | Activity (HOS-TE85 [8]): Dose-dependent-effect | Activity [9]: Non-toxic | Activity (HOS-TE85 [10]): 6.3% | Activity (HOS-TE85 [11]): Dose-dependent-effect | Activity [12]: Non-toxic | Activity (HOS-TE85 [13]): 55.9% | Activity [14]: Non-toxic | Activity [15]: Non-toxic | Activity (HOS-TE85 [16]): 10.6% | IC50 at 72 h [17]: 19 µM | Activity (HOS-TE85 [18]): 23.1% | Activity (HOS-TE85 [19]): 17.7% | Activity (HOS-TE85 [20]): 26.1% | Activity (HOS-TE85 [21]): 0.55% | Activity [22]: Non-toxic | Activity (HOS-TE85 [23]): 9.2% | Activity (HOS-TE85 [24]): 63.7% | Activity (HOS-TE85 [25]): 0.38%

— ChEMBL document CHEMBL6109124, “Identification of effective anti-osteosarcoma agents via screening of an in-house NQO1-targeted compound library” (Bioorg Med Chem, 2025)
